Measured values published in patent publication US6767741B1, “Metal binding compounds and their use in cell culture medium compositions” (Invitrogen Corporation, priority 1999, dated 2004).

Legend:
Assay type in all cases: cell-based
[1] = test system: mammalian cells; experiment: Replacement of transferrin as iron carrier in culture media (general statements); conditions: statement in words
Text: By “compatible ingredients” is also meant those media nutrients which can be maintained together in solution and form a “stable” combination. […] Ingredients are also considered “stable” if degradation cannot be detected or when degradation occurs at a slower rate when compared to decomposition of the same ingredient in a 1×cell culture media formulation. For example, in 1×media formulations glutamine is known to degrade into pyrolidone carboxylic acid and ammonia. Glutamine in combination with divalent cations are considered “compatible ingredients” since little or no decomposition of the glutamine can be detected over time in solutions or combinations in which both glutamine and divalent cations are present. See U.S. Pat. No. 5,474,931.
The metal-binding compounds used in accordance with the present invention may be obtained commercially (e.g., from Sigma,St. Louis, Mo. and other well-known commercial sources), or may be prepared synthetically according to the guidance provided by the technical and patent publications referenced herein, the disclosures of which are incorporated herein by reference in their entireties.

[2] = test system: Sp2/0 cells; experiment: Growth of Sp2/0 cells in transferrin-free CD Hybridoma medium with metal binding compounds; conditions: third passage, control = 5 μg/mL human holo-transferrin, duplicate cultures
Description: The ability of iron metal binding compounds to support cellular growth in the absence of transferrin was evaluated using Sp2/0 cells maintained in CD Hybridoma medium (Life Technologies, Rockville, Md.). Stock cultures containing 5 μg/mL human holo-transferrin were prepared in CD Hybridoma medium. For metal binding compound evaluation, Sp2/0 cells were established at an initial viable cell density of 0.5×10^5 cells/mL in stationary culture using 75 cm^2 tissue culture flasks in a final volume of 20 mL. All cultures were maintained at 37° C. in humidified air containing 8% CO2. To eliminate transferrin carry-over effects, cells were subcultured at the same seeding density at 4 day intervals for a total of three passages. Positive control cultures contained 5 μg/mL human holotransferrin while negative control cultures were established in the absence of either transferrin or metal binding compound. Metal binding compound stocks were prepared at 0.1M-0.2M in ddH2O and solubilized when necessary using 5N NaOH or HCl. Iron complexes were established using 0.2M metal binding compound and iron stocks mixed 1:1 (v/v) and incubated for 5-10 minutes at 22° C. All solutions containing metal binding compounds were filter sterilized using a 0.22 μm Millex-GV filter prior to addition to transferrin and serum-free media.
(§1) In most cases, metal binding compounds were evaluated either alone or in combination with ferric chloride or ferrous sulfate at 25 μM, 50 μM and 100 μM. Values in the table represent the mean percentage of control growth for duplicate cultures determined at the third passage.
(§2) When added to the medium formulation un-complexed, the metal binding compound is listed alone, when added as a complex with a transition metal, the source of the transition metal is listed with the metal binding compound.

[3] = test system: 293 cells; experiment: Growth of 293 cells in transferrin-free 293 SFM with metal binding compounds; conditions: third passage, control = 5 μg/mL human holo-transferrin, duplicate cultures
Description: Semi-confluent adherent cultures of 293 Cells (ATCC, CRL 1573) are readily adapted to suspension culture. The cells are first detached with a solution of Trypsin-EDTA (0.05% Trypsin, 0.53 mM Na4EDTA), and then resuspended in conventional medium supplemented with 10% FBS to inhibit the trypsin. The resuspended cells are centrifuged at 200×g for five minutes. The cell pellet is resuspended in 293 SFM (available from Life Technologies, Rockville, Md.) the formulation of which is described in WO 98/08934 which is specifically incorporated herein by reference. Alternatively, the cells may be detached with Versene (Na4EDTA, 0.53 mM) and resuspended in 293 SFM.
The initial seeding density of the 293 cells after conversion to suspension culture is 1×10^6 cells/mL. The cells are shaken on a rotary shaker at 150 rpm in a 37° C. incubator equilibrated with 8% CO2-92% air. When the cells reach a density of 1.5×10^6 cells/mL they are diluted with 293 SFM to a density of 3.0×10^5 cells/mL. Because 293 cells have a tendency to aggregate, the cells may be vortexed vigorously for approximately 45 seconds to obtain a predominantly single cell suspension at the time of passaging and counting. After several passages in suspension culture, the maximum achievable density may be determined.
The ability of metal binding compounds to support cellular growth was evaluated using 293 cells maintained in 293 SFM (Life Technologies, Rockville, Md.) without transferrin or metal binding compound. Stock cultures containing 5 μg/mL human holo-transferrin were prepared in 293 SFM. For metal binding compound evaluation, 293 cells were established in 125 mL shaker flasks at an initial viable seeding density of 2×10^5 cells/mL in a final volume of 20 mL. All cultures were maintained at 37° C. in humidified air containing 8% CO2. To eliminate transferrin carry-over effects, cells were subcultured at 4 day intervals for a total of three passages. At each subculturing, cells were seeded at a density of 2×10^5 cells/mL. Positive control cultures contained 5 μg/mL human holo-transferrin while negative control cultures were established in the absence of either transferrin or metal binding compound. Metal binding compound stocks were prepared at 0.1M-0.2M in ddH2O and solubilized when necessary using 5N NaOH or HCl. Iron complexes were established using 0.2M metal binding compound and iron stocks mixed 1:1 (v/v) and incubated for 5-10 minutes at 22° C. All solutions containing metal binding compounds were filter sterilized using a 0.22 μm Millex-GV filter prior to addition to transferrin and serum-free media.
as §1, with “μM. When used in combination, the metal binding compounds were used in equimolar concentration with iron ions.” for “μM.”
as §2

[4] = test system: CHO cells; experiment: Growth of CHO cells in transferrin-free CD CHO medium with metal binding compounds; conditions: third passage, control = 5 μg/mL human holo-transferrin, duplicate cultures
Description: The ability of metal binding compounds to support cellular growth in the absence of transferrin was evaluated using CHO cells maintained in CD CHO medium (Life Technologies, Rockville, Md., the formulation of which is described in WO 98/08934). Stock cultures containing 5 μg/mL human holo-transferrin were prepared in CD CHO medium. For metal binding compound evaluation, CHO cells were established in 125 mL shaker flasks at an initial viable seeding density of 1×10^5 cells/mL in a final volume of 20 mL. All cultures were maintained at 37° C. in humidified air containing 8% CO2. To eliminate transferrin carry-over effects, cells were subcultured at 4 day intervals for a total of three passages. Positive control cultures contained 5 μg/mL human holo-transferrin while negative control cultures were established in the absence of either transferrin or metal binding compound. Metal binding compound stocks were prepared at 0.1M-0.2M in ddH2O and solubilized when necessary using 5N NaOH or HCl. Iron complexes were established using 0.2M metal binding compound and iron stocks mixed 1:1 (v/v) and incubated for 5-10 minutes at 22° C. All solutions containing metal binding compounds were filter sterilized using a 0.22 μm Millex-GV filter prior to addition to transferrin and serum-free media.
as §1
as §2, with “The ability of various metal binding compounds to substitute for transferrin in the culture of CHO cells was determined. When” for “When”

Compound	ability to replace transferrin as iron carrier in culture media [1]	mean percentage of control growth ([2]; 25 μM)	mean percentage of control growth ([2]; 50 μM)	mean percentage of control growth ([2]; 100 μM)	mean percentage of control growth ([3]; 25 μM)	mean percentage of control growth ([3]; 50 μM)	mean percentage of control growth ([3]; 100 μM)	mean percentage of control growth ([4]; 25 μM)	mean percentage of control growth ([4]; 50 μM)	mean percentage of control growth ([4]; 100 μM)
OC[C@@H](O)[C@@H](O)[C@H](O)[C@@H](O)CO [sorbitol]	used successfully to replace transferrin	–	–	–	–	–	–	–	–	–
NC(=O)CCC(N)C(=O)O.[Cl][Fe]([Cl])[Cl] (centres unmarked) [Glutamine · Ferric Chloride]	can be substituted for transferrin	36%	55%	65%	–	–	–	–	–	–
O=C(O)CN(CC(=O)O)CC(=O)O.[Cl][Fe]([Cl])[Cl] [Nitriloacetic Acid · Ferric Chloride]	–	88%	87%	70%	100%	118%	74%	127%	107%	107%
CCc1occc(=O)c1O [2-Ethyl-3-Hydroxy-4-Pyrone]	–	0%	75%	116%	59%	120%	126%	9%	60%	113%
NC(CO)C(=O)NO.[Cl][Fe]([Cl])[Cl] (centres unmarked) [Serine Hydroxamate · Ferric Chloride]	–	46%	66%	62%	68%	65%	51%	106%	121%	124%
[Cl][Fe]([Cl])[Cl].[O-][n+]1cccc(O)c1 [3-Hydroxypyridine-N-Oxide · Ferric Chloride]	–	55%	54%	57%	77%	72%	81%	77%	66%	101%
